In PMC10873978, “Novel tetrahydroisoquinolines as DHFR and CDK2 inhibitors: synthesis, characterization, anticancer activity and antioxidant properties” (BMC Chemistry, 2024):
“Also recorded” adds a separate entry of the source.

Experiments:
A549 cell line = assay: In vitro cytotoxic activity, MTT method, A549; conditions: for IC50: Homo sapiens, read-out: IC50 ± SD
Experimental: (§1) Cell lines: The in vitro human breast cancerous cell line (MCF7), lung cancerous cell lines (A549) and normal cell lines were purchased from Serum and Vaccine formulation in Cairo-Egypt.
(§2) In vitro cytotoxic activity of all synthesized compounds against two human breast cell line (MCF7) and lung cell lines (A549) was evaluated according to the MTT method. Firstly, Growth the cell line medium in 96 well tissue culture plate was injected with 10^5 cells/mL (100 uL/plate well) of the cell line and incubated at 37 °C for 24 h to develop a monolayer sheet then the formed growth medium was poured from 96 well microtiter plates after the confluent sheet of cells. […] Secondly, add 0.1 mL of each concentration tetrahydroisoquinoline sample to each plate. The plates were incubated at 37 °C. Thirdly MTT solution (5 mg/mL in PBS) is prepared. Add 20 µL of MTT solution to each well plates. And shaking in 150 rpm for 5 min, to mix the MTT into the media. Then incubate at (37 °C, 5% CO2) for 1–5 h. Finally read the optical density at 560 nm and subtract background at 620 nm.
(§3) In this work, doxorubicin was used as a positive control drug for comparison with the synthesized compounds under the same experimental conditions.

MCF7 cell line = assay: In vitro cytotoxic activity, MTT method, MCF7; format: cell-based, human; conditions: for IC50: Homo sapiens, MCF7, MCF7 cell line, MTT
Experimental: as §1, §2, §3

[1] = DPPH scavenging antioxidant activity
Experimental: The antioxidant activity of ten compounds was determined using DPPH [32–34]. A solution 1: prepared by dissolving DPPH (0.002 g) in ethanol (50 mL etnanol). Solution 2: prepared by dissolving different weights 0.05, 0.01 g of each sample in 1 mL of DMSO then take 10 µL of each sample solution with 1 mL ethanol. Then mix 1 mL of solution 1 with 1 mL of solution 2 then vortex the resulting mixture in the dark for about 30 min. The absorbance of the mixture was measured by spectrophotometer at λmax = 517 nm against blank 1 mL absolute ethanol and compared to the ascorbic acid (Vitamin C).
Ten newly synthesized compounds were studied as in vitro antioxidants by measuring of their DPPH scavenging activity which is represented as a percentage % [32]^. Results are represented by mean ± SD of three replicates. […] The higher dose concentration of 0.05 μg/mL represents higher antioxidant activity. […] The high antioxidant activity is referred to the presence of C=O, NH2, and OH groups like ascorbic acid which can be easily oxidized and reduced and can be used as antioxidant drugs. (Fig. 8 and Table 9).

With `CC(=O)C1C(c2ccc(N(C)C)cc2)c2c(C)nc(SCC#N)c(C#N)c2CC1(C)O` (stereo not drawn) [Compound 6, 2-[(7-Acetyl-4-cyano-1,6-dimethyl-6-hydroxy-8-(4-N,N-dimethylamino-phenyl)-5,6,7,8-tetrahydroisoquinolin-3-yl)thio]acetonitrile] as the molecule, how does the Viability % (A549 cell line; A549, Conc. 0.0487 µMol) read?
Its Viability % is 99.7%.

What about the Toxicity % (A549 cell line; A549, Conc. 0.0975 µMol) of the same molecule?
The Toxicity % was 0.50%.

What about the Viability % (A549 cell line; A549, Conc. 0.0975 µMol) of the same molecule?
Its Viability % is 99.5%.

What about the Toxicity % (A549 cell line; A549, Conc. 0.195 µMol) of the same molecule?
Its Toxicity % is 0.6312%.

And the Viability % (A549 cell line; A549, Conc. 0.195 µMol)?
Its Viability % is 99.37%.

And the Toxicity % (A549 cell line; A549, Conc. 0.391 µMol)?
The Toxicity % was 1.46%.

And the Viability % (A549 cell line; A549, Conc. 0.391 µMol)?
The Viability % was 98.54%.

And the Toxicity % (A549 cell line; A549, Conc. 0.781 µMol)?
Its Toxicity % is 15.46%.

And the Viability % (A549 cell line; A549, Conc. 0.781 µMol)?
The Viability % was 84.54%.

And the Toxicity % (A549 cell line; A549, Conc. 1.562 µMol)?
Its Toxicity % is 29.7%.

What about the Viability % (A549 cell line; A549, Conc. 1.562 µMol) of the same molecule?
Its Viability % is 70.3%.

And the Toxicity % (A549 cell line; A549, Conc. 3.125 µMol)?
The Toxicity % was 43.83%.

And the Viability % (A549 cell line; A549, Conc. 3.125 µMol)?
Its Viability % is 56.17%.

What about the Toxicity % (A549 cell line; A549, Conc. 6.25 µMol) of the same molecule?
Its Toxicity % is 74.71%.

What about the Viability % (A549 cell line; A549, Conc. 6.25 µMol) of the same molecule?
The Viability % was 25.29%.

What about the Toxicity % (A549 cell line; A549, Conc. 12.5 µMol) of the same molecule?
The Toxicity % was 88.52%.

And the Viability % (A549 cell line; A549, Conc. 12.5 µMol)?
The Viability % was 11.48%.

What about the Toxicity % (A549 cell line; A549, Conc. 25 µMol) of the same molecule?
The Toxicity % was 96.29%.

And the Viability % (A549 cell line; A549, Conc. 25 µMol)?
Its Viability % is 3.708%.

And the IC50 (A549 cell line)?
Its IC50 is 3736 ± 2 nM.

What about the IC50 (MCF7 cell line) of the same molecule?
Its IC50 is 329 ± 5 nM.

What about the Viability % (MCF7 cell line; MCF7, 0.0487 µMol) of the same molecule?
Its Viability % is 80.118%.

What about the Toxicity % (MCF7 cell line; MCF7, 0.0975 µMol) of the same molecule?
Its Toxicity % is 25.5567%.

What about the Viability % (MCF7 cell line; MCF7, 0.0975 µMol) of the same molecule?
Its Viability % is 74.5543%.

What about the Toxicity % (MCF7 cell line; MCF7, 0.195 µMol) of the same molecule?
The Toxicity % was 38.24%.

What about the Viability % (MCF7 cell line; MCF7, 0.195 µMol) of the same molecule?
Its Viability % is 61.76%.

And the Toxicity % (MCF7 cell line; MCF7, 0.391 µMol)?
Its Toxicity % is 59.68%.

What about the Viability % (MCF7 cell line; MCF7, 0.391 µMol) of the same molecule?
The Viability % was 40.32%.

And the Toxicity % (MCF7 cell line; MCF7, 0.781 µMol)?
The Toxicity % was 70.71%.

What about the Viability % (MCF7 cell line; MCF7, 0.781 µMol) of the same molecule?
Its Viability % is 29.29%.

And the Toxicity % (MCF7 cell line; MCF7, 1.562 µMol)?
Its Toxicity % is 76.35%.

What about the Viability % (MCF7 cell line; MCF7, 1.562 µMol) of the same molecule?
The Viability % was 23.65%.

What about the Toxicity % (MCF7 cell line; MCF7, 3.125 µMol) of the same molecule?
Its Toxicity % is 85.7%.

What about the Viability % (MCF7 cell line; MCF7, 3.125 µMol) of the same molecule?
The Viability % was 14.3%.

And the Toxicity % (MCF7 cell line; MCF7, 6.25 µMol)?
Its Toxicity % is 93.38%.

What about the Viability % (MCF7 cell line; MCF7, 6.25 µMol) of the same molecule?
Its Viability % is 6.618%.

And the Toxicity % (MCF7 cell line; MCF7, 12.5 µMol)?
Its Toxicity % is 97.14%.

What about the Viability % (MCF7 cell line; MCF7, 12.5 µMol) of the same molecule?
The Viability % was 2.859%.

And the Toxicity % (MCF7 cell line; MCF7, 25 µMol)?
The Toxicity % was 97.34%.

What about the Viability % (MCF7 cell line; MCF7, 25 µMol) of the same molecule?
The Viability % was 2.655%.

What about the “DPPH scavenging, inhibition (%)” value ([1]; 0.01 µg/mL) of the same molecule?
The value was 69.67 ± 5.65%.

What about the “DPPH scavenging, inhibition (%)” value ([1]; 0.05 µg/mL) of the same molecule?
Its value is 83.72 ± 4.08%.

What about the “antioxidant activity compared with Vitamin C” value ([1]; DPPH) of the same molecule?
Its value is “higher result than Vitamin C; also recorded: higher antioxidant activity than Vitamin C”.

Which results are given for `CC(=O)C1C(c2ccc(N(C)C)cc2)c2c(C)nc(SCC(=O)Nc3ccccc3)c(C#N)c2CC1(C)O` (stereo not drawn) [Compound 7a, 2-[(7-Acetyl-4-cyano-1,6-dimethyl-6-hydroxy-8-(4-N,N-dimethylamino-phenyl)-5,6,7,8-tetrahydroisoquinolin-3-yl)thio]-N-phenylacetamide]?
Toxicity % (A549 cell line; A549, Conc. 0.04875 µMol): 0.09882%; Viability % (A549 cell line; A549, Conc. 0.04875 µMol): 99.9%; Toxicity % (A549 cell line; A549, Conc. 0.0975 µMol): 0.1346%; Viability % (A549 cell line; A549, Conc. 0.0975 µMol): 99.87%; Toxicity % (A549 cell line; A549, Conc. 0.195 µMol): 0.168%; Viability % (A549 cell line; A549, Conc. 0.195 µMol): 99.83%; Toxicity % (A549 cell line; A549, Conc. 0.391 µMol): 13.91%; Viability % (A549 cell line; A549, Conc. 0.391 µMol): 86.09%; Toxicity % (A549 cell line; A549, Conc. 0.781 µMol): 29.94%; Viability % (A549 cell line; A549, Conc. 0.781 µMol): 70.06%; Toxicity % (A549 cell line; A549, Conc. 1.562 µMol): 41.33%; Viability % (A549 cell line; A549, Conc. 1.562 µMol): 58.67%; Toxicity % (A549 cell line; A549, Conc. 3.125 µMol): 53.33%; Viability % (A549 cell line; A549, Conc. 3.125 µMol): 46.67%; Toxicity % (A549 cell line; A549, Conc. 6.25 µMol): 80.11%; Viability % (A549 cell line; A549, Conc. 6.25 µMol): 19.89%; Toxicity % (A549 cell line; A549, Conc. 12.5 µMol): 91.33%; Viability % (A549 cell line; A549, Conc. 12.5 µMol): 8.669%; Toxicity % (A549 cell line; A549, Conc. 25 µMol): 96.98%; Viability % (A549 cell line; A549, Conc. 25 µMol): 3.024%; IC50 (A549 cell line): 1586 ± 1 nM; IC50 (MCF7 cell line): 2218 ± 4 nM; Toxicity % (MCF7 cell line; MCF7, 0.0487 µMol): -5.346%; Viability % (MCF7 cell line; MCF7, 0.0487 µMol): 105.8%; Toxicity % (MCF7 cell line; MCF7, 0.0975 µMol): -3.456%; Viability % (MCF7 cell line; MCF7, 0.0975 µMol): 103.5%; Toxicity % (MCF7 cell line; MCF7, 0.195 µMol): -2.859%; Viability % (MCF7 cell line; MCF7, 0.195 µMol): 102.9%; Toxicity % (MCF7 cell line; MCF7, 0.391 µMol): 8.047%; Viability % (MCF7 cell line; MCF7, 0.391 µMol): 91.95%; Toxicity % (MCF7 cell line; MCF7, 0.781 µMol): 23.12%; Viability % (MCF7 cell line; MCF7, 0.781 µMol): 76.88%; Toxicity % (MCF7 cell line; MCF7, 1.562 µMol): 33.82%; Viability % (MCF7 cell line; MCF7, 1.562 µMol): 66.18%; Toxicity % (MCF7 cell line; MCF7, 3.125 µMol): 52.98%; Viability % (MCF7 cell line; MCF7, 3.125 µMol): 47.02%; Toxicity % (MCF7 cell line; MCF7, 6.25 µMol): 71.85%; Viability % (MCF7 cell line; MCF7, 6.25 µMol): 28.15%; Toxicity % (MCF7 cell line; MCF7, 12.5 µMol): 91.95%; Viability % (MCF7 cell line; MCF7, 12.5 µMol): 8.047%; Toxicity % (MCF7 cell line; MCF7, 25 µMol): 97.39%; Viability % (MCF7 cell line; MCF7, 25 µMol): 2.614%; DPPH scavenging, inhibition (%) ([1]; 0.01 µg/mL): 43.26 ± 0.73%; DPPH scavenging, inhibition (%) ([1]; 0.05 µg/mL): 62.96 ± 0.73%
